Test results reported in PubChem BioAssay (NCI).
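Cultured in 96-well plates, cells were exposed to test compound for 48 hours across five concentrations. TGI: concentration producing complete growth inhibition.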

Columns and labels:
Assay in all cases: NCI tumour cell line growth inhibition, 48 h
A498 renal = system: A498 renal
LOX IMVI melanoma = system: LOX IMVI melanoma
SF-295 CNS = system: SF-295 CNS
NCI-H23 lung = system: NCI-H23 lung
MDA-MB-435 = system: MDA-MB-435
HT29 colon = system: HT29 colon
HOP-62 NSCLC = system: HOP-62 NSCLC
UACC-62 melanoma = system: UACC-62 melanoma
A549 NSCLC = system: A549 NSCLC
SN12C renal = system: SN12C renal
HCT-15 colon = system: HCT-15 colon
HCT-116 colon = system: HCT-116 colon
SF-268 CNS = system: SF-268 CNS
COLO 205 colon = system: COLO 205 colon
786-0 renal = system: 786-0 renal
NCI-H522 lung = system: NCI-H522 lung
SW-620 colon = system: SW-620 colon
SNB-19 CNS = system: SNB-19 CNS
SK-OV-3 ovarian = system: SK-OV-3 ovarian
HCC-2998 colon = system: HCC-2998 colon
U251 CNS = system: U251 CNS
ACHN renal = system: ACHN renal
NCI-H226 lung = system: NCI-H226 lung
IGROV1 ovarian = system: IGROV1 ovarian
MALME-3M melanoma = system: MALME-3M melanoma
HOP-92 NSCLC = system: HOP-92 NSCLC
OVCAR-5 ovarian = system: OVCAR-5 ovarian
MOLT-4 leukemia = system: MOLT-4 leukemia
SK-MEL-2 melanoma = system: SK-MEL-2 melanoma
DU-145 prostate = system: DU-145 prostate
KM12 colon = system: KM12 colon
CAKI-1 renal = system: CAKI-1 renal
RXF 393 renal = system: RXF 393 renal
HS 578T breast = system: HS 578T breast
NCI/ADR-RES ovarian = system: NCI/ADR-RES ovarian
OVCAR-4 ovarian = system: OVCAR-4 ovarian
TK-10 renal = system: TK-10 renal
T-47D breast = system: T-47D breast
BT-549 breast = system: BT-549 breast
SK-MEL-28 melanoma = system: SK-MEL-28 melanoma
OVCAR-8 ovarian = system: OVCAR-8 ovarian
MDA-N = system: MDA-N
NCI-H460 lung = system: NCI-H460 lung
UO-31 renal = system: UO-31 renal
SF-539 CNS = system: SF-539 CNS
PC-3 prostate = system: PC-3 prostate
MDA-MB-231 breast = system: MDA-MB-231 breast
OVCAR-3 ovarian = system: OVCAR-3 ovarian
CCRF-CEM leukemia = system: CCRF-CEM leukemia
K-562 leukemia = system: K-562 leukemia
MCF7 breast = system: MCF7 breast
UACC-257 melanoma = system: UACC-257 melanoma
HL-60(TB) leukemia = system: HL-60(TB) leukemia
EKVX NSCLC = system: EKVX NSCLC
SNB-75 CNS = system: SNB-75 CNS
SK-MEL-5 melanoma = system: SK-MEL-5 melanoma
M14 melanoma = system: M14 melanoma
RPMI-8226 leukemia = system: RPMI-8226 leukemia

## CCC(C)NC(=S)N/N=C(\C)c1ccccn1 (stereo not given)
A498 renal
  TGI: > 26 µM
LOX IMVI melanoma
  TGI: > 100 µM
SF-295 CNS
  TGI: > 33.2 µM
NCI-H23 lung
  TGI: > 100 µM
MDA-MB-435
  TGI: > 100 µM
HT29 colon
  TGI: > 100 µM
HOP-62 NSCLC
  TGI: > 25.8 µM
UACC-62 melanoma
  TGI: > 30 µM
A549 NSCLC
  TGI: > 33.5 µM
SN12C renal
  TGI: > 100 µM
HCT-15 colon
  TGI: > 100 µM
HCT-116 colon
  TGI: > 100 µM
SF-268 CNS
  TGI: > 100 µM
COLO 205 colon
  TGI: > 100 µM
786-0 renal
  TGI: > 100 µM
NCI-H522 lung
  TGI: 51.4 µM
SW-620 colon
  TGI: > 100 µM
SNB-19 CNS
  TGI: > 100 µM
SK-OV-3 ovarian
  TGI: > 100 µM
HCC-2998 colon
  TGI: > 100 µM
U251 CNS
  TGI: > 100 µM
ACHN renal
  TGI: 10.3 µM
NCI-H226 lung
  TGI: 6.83 µM
IGROV1 ovarian
  TGI: > 30.7 µM
MALME-3M melanoma
  TGI: > 28.3 µM
HOP-92 NSCLC
  TGI: 0.668 µM
OVCAR-5 ovarian
  TGI: > 100 µM
MOLT-4 leukemia
  TGI: 0.14 µM
SK-MEL-2 melanoma
  TGI: > 100 µM
DU-145 prostate
  TGI: > 46.8 µM
KM12 colon
  TGI: > 100 µM
CAKI-1 renal
  TGI: > 100 µM
RXF 393 renal
  TGI: 26.9 µM
HS 578T breast
  TGI: > 100 µM
NCI/ADR-RES ovarian
  TGI: 7.94 µM
OVCAR-4 ovarian
  TGI: > 100 µM
TK-10 renal
  TGI: > 100 µM
T-47D breast
  TGI: 41.7 µM
BT-549 breast
  TGI: > 100 µM
SK-MEL-28 melanoma
  TGI: > 100 µM
OVCAR-8 ovarian
  TGI: > 25.8 µM
MDA-N
  TGI: > 80 µM
NCI-H460 lung
  TGI: > 100 µM
UO-31 renal
  TGI: 16.8 µM
SF-539 CNS
  TGI: 6.89 µM
PC-3 prostate
  TGI: > 100 µM
MDA-MB-231 breast
  TGI: > 100 µM
OVCAR-3 ovarian
  TGI: 23.4 µM

## [N-]=[N+]=NC1=NNC2(C(=O)N1)c1ccccc1-c1ccccc12
A498 renal
  TGI: > 100 µM
LOX IMVI melanoma
  TGI: > 100 µM
SF-295 CNS
  TGI: > 100 µM
NCI-H23 lung
  TGI: > 100 µM
CCRF-CEM leukemia
  TGI: > 100 µM
K-562 leukemia
  TGI: > 100 µM
MDA-MB-435
  TGI: 33.1 µM
HT29 colon
  TGI: > 100 µM
HOP-62 NSCLC
  TGI: > 100 µM
MCF7 breast
  TGI: > 100 µM
UACC-62 melanoma
  TGI: > 100 µM
A549 NSCLC
  TGI: > 100 µM
SN12C renal
  TGI: > 100 µM
UACC-257 melanoma
  TGI: > 100 µM
HL-60(TB) leukemia
  TGI: > 100 µM
HCT-15 colon
  TGI: > 100 µM
HCT-116 colon
  TGI: 27.4 µM
SF-268 CNS
  TGI: > 100 µM
COLO 205 colon
  TGI: > 100 µM
786-0 renal
  TGI: > 100 µM
NCI-H522 lung
  TGI: > 100 µM
SW-620 colon
  TGI: > 100 µM
SNB-19 CNS
  TGI: > 100 µM
SK-OV-3 ovarian
  TGI: > 100 µM
HCC-2998 colon
  TGI: > 100 µM
U251 CNS
  TGI: > 100 µM
ACHN renal
  TGI: > 100 µM
NCI-H226 lung
  TGI: > 100 µM
IGROV1 ovarian
  TGI: > 100 µM
MALME-3M melanoma
  TGI: 33.3 µM
HOP-92 NSCLC
  TGI: > 100 µM
EKVX NSCLC
  TGI: > 100 µM
OVCAR-5 ovarian
  TGI: > 100 µM
SK-MEL-2 melanoma
  TGI: > 100 µM
DU-145 prostate
  TGI: > 100 µM
CAKI-1 renal
  TGI: > 100 µM
RXF 393 renal
  TGI: > 100 µM
HS 578T breast
  TGI: > 100 µM
NCI/ADR-RES ovarian
  TGI: > 100 µM
SNB-75 CNS
  TGI: > 100 µM
OVCAR-4 ovarian
  TGI: > 100 µM
TK-10 renal
  TGI: > 100 µM
BT-549 breast
  TGI: > 100 µM
SK-MEL-28 melanoma
  TGI: > 100 µM
OVCAR-8 ovarian
  TGI: > 100 µM
MDA-N
  TGI: > 100 µM
NCI-H460 lung
  TGI: > 100 µM
UO-31 renal
  TGI: > 100 µM
SF-539 CNS
  TGI: > 100 µM
PC-3 prostate
  TGI: > 100 µM
MDA-MB-231 breast
  TGI: > 100 µM
SK-MEL-5 melanoma
  TGI: > 100 µM
OVCAR-3 ovarian
  TGI: > 100 µM
M14 melanoma
  TGI: > 100 µM

## Nc1ccccc1/C=C\c1ccccc1
SF-295 CNS
  TGI: > 100 µM
NCI-H23 lung
  TGI: > 100 µM
CCRF-CEM leukemia
  TGI: > 100 µM
K-562 leukemia
  TGI: > 100 µM
MDA-MB-435
  TGI: > 100 µM
HT29 colon
  TGI: > 100 µM
HOP-62 NSCLC
  TGI: > 100 µM
MCF7 breast
  TGI: > 100 µM
UACC-62 melanoma
  TGI: > 100 µM
A549 NSCLC
  TGI: > 100 µM
SN12C renal
  TGI: > 100 µM
UACC-257 melanoma
  TGI: > 100 µM
HL-60(TB) leukemia
  TGI: > 100 µM
HCT-15 colon
  TGI: > 100 µM
HCT-116 colon
  TGI: > 100 µM
SF-268 CNS
  TGI: > 100 µM
786-0 renal
  TGI: > 100 µM
SW-620 colon
  TGI: > 100 µM
SNB-19 CNS
  TGI: > 100 µM
SK-OV-3 ovarian
  TGI: > 100 µM
U251 CNS
  TGI: > 100 µM
ACHN renal
  TGI: > 100 µM
NCI-H226 lung
  TGI: > 100 µM
IGROV1 ovarian
  TGI: > 100 µM
RPMI-8226 leukemia
  TGI: > 100 µM
MALME-3M melanoma
  TGI: > 100 µM
HOP-92 NSCLC
  TGI: > 100 µM
EKVX NSCLC
  TGI: > 100 µM
OVCAR-5 ovarian
  TGI: > 100 µM
MOLT-4 leukemia
  TGI: > 100 µM
DU-145 prostate
  TGI: > 100 µM
KM12 colon
  TGI: > 100 µM
RXF 393 renal
  TGI: > 100 µM
HS 578T breast
  TGI: > 100 µM
NCI/ADR-RES ovarian
  TGI: > 100 µM
SNB-75 CNS
  TGI: > 100 µM
TK-10 renal
  TGI: > 100 µM
T-47D breast
  TGI: > 100 µM
BT-549 breast
  TGI: > 100 µM
SK-MEL-28 melanoma
  TGI: > 100 µM
OVCAR-8 ovarian
  TGI: > 100 µM
MDA-N
  TGI: > 100 µM
NCI-H460 lung
  TGI: > 100 µM
UO-31 renal
  TGI: > 100 µM
SF-539 CNS
  TGI: > 100 µM
PC-3 prostate
  TGI: > 100 µM
SK-MEL-5 melanoma
  TGI: > 100 µM
OVCAR-3 ovarian
  TGI: > 100 µM
M14 melanoma
  TGI: > 100 µM

## Cc1cccc(/C=N/NC(=S)N2CCCCCC2)n1
A498 renal
  TGI: 13.5 µM
LOX IMVI melanoma
  TGI: 17 µM
SF-295 CNS
  TGI: 31.7 µM
NCI-H23 lung
  TGI: > 37.1 µM
K-562 leukemia
  TGI: > 100 µM
MDA-MB-435
  TGI: 38.9 µM
HT29 colon
  TGI: > 40 µM
HOP-62 NSCLC
  TGI: 1.01 µM
UACC-62 melanoma
  TGI: 1.08 µM
A549 NSCLC
  TGI: 17.2 µM
SN12C renal
  TGI: 0.805 µM
UACC-257 melanoma
  TGI: 1.91 µM
HL-60(TB) leukemia
  TGI: 0.241 µM
HCT-15 colon
  TGI: > 36.3 µM
HCT-116 colon
  TGI: 0.11 µM
COLO 205 colon
  TGI: 0.632 µM
786-0 renal
  TGI: 0.775 µM
NCI-H522 lung
  TGI: 0.788 µM
SW-620 colon
  TGI: > 100 µM
SNB-19 CNS
  TGI: > 100 µM
HCC-2998 colon
  TGI: > 100 µM
ACHN renal
  TGI: 1.71 µM
NCI-H226 lung
  TGI: 7.46 µM
IGROV1 ovarian
  TGI: 1.55 µM
RPMI-8226 leukemia
  TGI: 0.374 µM
MALME-3M melanoma
  TGI: 25.3 µM
HOP-92 NSCLC
  TGI: > 89.1 µM
EKVX NSCLC
  TGI: 9.32 µM
OVCAR-5 ovarian
  TGI: > 72.2 µM
SK-MEL-2 melanoma
  TGI: 19.2 µM
KM12 colon
  TGI: > 44.7 µM
CAKI-1 renal
  TGI: 8.86 µM
RXF 393 renal
  TGI: 38.9 µM
HS 578T breast
  TGI: > 100 µM
NCI/ADR-RES ovarian
  TGI: 0.202 µM
SNB-75 CNS
  TGI: 0.758 µM
TK-10 renal
  TGI: 4.8 µM
T-47D breast
  TGI: > 100 µM
BT-549 breast
  TGI: 14.4 µM
SK-MEL-28 melanoma
  TGI: > 100 µM
OVCAR-8 ovarian
  TGI: 0.428 µM
MDA-N
  TGI: > 45.9 µM
NCI-H460 lung
  TGI: 1.18 µM
UO-31 renal
  TGI: 9.91 µM
SF-539 CNS
  TGI: 0.549 µM
PC-3 prostate
  TGI: > 72.5 µM
MDA-MB-231 breast
  TGI: 15.2 µM
SK-MEL-5 melanoma
  TGI: 2 µM
M14 melanoma
  TGI: 0.441 µM
